Assays:
[1] = molecular target: SARS-CoV-2 M^pro (Severe acute respiratory syndrome coronavirus 2, UniProt P0DTD1); assay: biochemical; assay type: biochemical; conditions: ± SE, triplicate readings; for IC50: IC50 against SARS-CoV-2 M^pro
[2] = test system: SARS-CoV-2; assay type: cell-based; conditions: for SI (selectivity index): IC50 Vero cell cytotoxicity divided by EC50 of the antiviral assay; for EC50: read-out: Antiviral assay (qPCR) EC50, Vero E6 cells, five concentrations, ± SE

Row | SMILES | IC50 [1] [µM] | IC50 against SARS-CoV-2 M^pro [1] | SI (selectivity index) [2] | EC50 [2] [µM] | Antiviral assay (qPCR) Inhibition % ([2]; 10 µM) [%]
1 | CC(=O)c1cccc(NC(=O)c2cc3c(=O)n4ccccc4nc3n2C)c1 [Compound 25, N-(3-Acetylphenyl)-1-methyl-4-oxo-1,4-dihydropyrido[1,2-a]pyrrolo[2,3-d]pyrimidine-2-carboxamide] | 5.42 | low micromolar concentrations | 1135 | – | –
2 | Cc1cc(NC(=O)c2cc3c(=O)n4cccc(C)c4nc3n2C)ccc1Br [Compound 28, N-(4-Bromo-3-methylphenyl)-1,9-dimethyl-4-oxo-1,4-dihydropyrido[1,2-a]pyrrolo[2,3-d]-pyrimidine-2-carboxamide] | 46 ± 8.62 | – | 1278 | – | –
3 | Cn1c(C(=O)Nc2ccc(Cl)cc2)cc2c(=O)n3ccccc3nc21 [Compound 22, N-(4-Chlorophenyl)-1-methyl-4-oxo-1,4-dihydropyrido[1,2-a]pyrrolo[2,3-d]pyrimidine-2-carboxamide] | 236 ± 4.29 | – | 1766 | 0.109 ± 0.0111 | –
4 | Cn1c(C(=O)Nc2ccc3c(c2)OCCO3)cc2c(=O)n3ccccc3nc21 [Compound 29, N-(2,3-Dihydrobenzo[b][1,4]dioxin-6-yl)-1-methyl-4-oxo-1,4-dihydropyrido[1,2-a]pyrrolo-[2,3-d]pyrimidine-2-carboxamide] | 3.22 ± 2.83 | low micromolar concentrations | 2909 | 0.0519 ± 0.00512 | –
5 | Cc1ccc(NC(=O)c2cc3c(=O)n4cccc(C)c4nc3n2C)cc1Cl [Compound 27, N-(3-Chloro-4-methylphenyl)-1,9-dimethyl-4-oxo-1,4-dihydropyrido[1,2-a]pyrrolo[2,3-d]-pyrimidine-2-carboxamide] | 165 ± 16.7 | – | 622.2 | – | –
6 | O=C(Nc1ccccc1F)c1cc2c(=O)n3ccccc3nc2n1Cc1ccccc1 [Compound 21, 1-Benzyl-N-(2-fluorophenyl)-4-oxo-1,4-dihydropyrido[1,2-a]pyrrolo[2,3-d]pyrimidine-2-carboxamide] | 25.4 ± 2.4 | – | 3544 | – | –
7 | CCC(CC)COC(=O)[C@H](C)N[P@](=O)(OC[C@H]1O[C@@](C#N)(c2ccc3c(N)ncnn23)[C@H](O)[C@@H]1O)Oc1ccccc1 [Remdesivir, reference compound] | – | – | 7195 | – | –
8 | CCc1ccc(NC(=O)c2cc3c(=O)n4ccccc4nc3n2C)cc1 [Compound 24, N-(4-Ethylphenyl)-1-methyl-4-oxo-1,4-dihydropyrido[1,2-a]pyrrolo[2,3-d]pyrimidine-2-carboxamide] | 82.2 ± 15 | – | 283.3 | – | –
9 | Cc1cccn2c(=O)c3cc(C(=O)Nc4ccc(N(C)C)cc4)n(C)c3nc12 [Compound 26, N-(4-(Dimethylamino)phenyl)-1,9-dimethyl-4-oxo-1,4-dihydropyrido[1,2-a]pyrrolo[2,3-d]-pyrimidine-2-carboxamide] | 407.5 ± 3.44 | – | 2323 | – | 94.05

From paper PMC9494209 (RSC Advances, 2022)
